Assay results reported in ChEMBL document CHEMBL1201862, “PubChem BioAssay data set” (2004).
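Each compound was tested at five concentrations against cells in 96-well plates for 48 hours. Abbreviation: GI50, concentration required for 50% inhibition of growth.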 Active and inactive are the calls of the source. Rule as the data show it: active = GI50 up to about 1.1 µM and inactive = higher.

Legend:
Test in all cases: NCI tumour cell line growth inhibition, 48 h
786-0 = test system: 786-0
A498 = test system: A498
CCRF-CEM = test system: CCRF-CEM
COLO 205 = test system: COLO 205
DU-145 = test system: DU-145
HOP-92 = test system: HOP-92
IGROV-1 = test system: IGROV-1
LOX IMVI = test system: LOX IMVI
M14 = test system: M14
MCF7 = test system: MCF7
MOLT-4 = test system: MOLT-4
NCI-H226 = test system: NCI-H226
NCI-H23 = test system: NCI-H23
NCI/ADR-RES = test system: NCI/ADR-RES
SF-539 = test system: SF-539
SK-MEL-28 = test system: SK-MEL-28
SNB-75 = test system: SNB-75
UO-31 = test system: UO-31
HCC 2998 = test system: HCC 2998

| SMILES | GI50 (786-0) | GI50 (A498) | GI50 (CCRF-CEM) | GI50 (COLO 205) | GI50 (DU-145) | GI50 (HOP-92) | GI50 (IGROV-1) | GI50 (LOX IMVI) | GI50 (M14) | GI50 (MCF7) | GI50 (MOLT-4) | GI50 (NCI-H226) | GI50 (NCI-H23) | GI50 (NCI/ADR-RES) | GI50 (SF-539) | GI50 (SK-MEL-28) | GI50 (SNB-75) | GI50 (UO-31) | GI50 (HCC 2998) |
| --- | --- | --- | --- | --- | --- | --- | --- | --- | --- | --- | --- | --- | --- | --- | --- | --- | --- | --- | --- |
| COC(=O)Nc1nc2cc(NS(=O)(=O)c3ccc(F)cc3)ccc2[nH]1 | 40 µM (inactive) | 11.3 µM (inactive) | 13.7 µM (inactive) | 5.25 µM (inactive) | 39.2 µM (inactive) | 10.5 µM (inactive) | 2.15 µM (inactive) | 48.1 µM (inactive) | 7.48 µM (inactive) | 4.57 µM (inactive) | 6.75 µM (inactive) | 77.8 µM (inactive) | 21.8 µM (inactive) | 13.3 µM (inactive) | 12.2 µM (inactive) | 9.75 µM (inactive) | 6.49 µM (inactive) | 37.6 µM (inactive) | – |
| Fc1ccc2c(c1)nc1n2C(c2c(Cl)cccc2Cl)SC1 (stereo not given) | 16 µM (inactive) | 20.9 µM (inactive) | – | 16.7 µM (inactive) | 16.4 µM (inactive) | 6.87 µM (inactive) | 14.1 µM (inactive) | 15 µM (inactive) | 16.4 µM (inactive) | 15.1 µM (inactive) | 8.02 µM (inactive) | 17.3 µM (inactive) | 13.1 µM (inactive) | 13.4 µM (inactive) | 18.1 µM (inactive) | 10.8 µM (inactive) | 13 µM (inactive) | 15.4 µM (inactive) | 15.7 µM (inactive) |
| COc1cc(OCc2ccc3nc(-c4ccccc4)c(Cl)nc3c2)cc(OC)c1OC | 29.4 µM (inactive) | 32.5 µM (inactive) | > 100 µM (inactive) | > 100 µM (inactive) | > 100 µM (inactive) | 8.71 µM (inactive) | 69.2 µM (inactive) | > 100 µM (inactive) | > 100 µM (inactive) | 59.7 µM (inactive) | > 100 µM (inactive) | – | 40.3 µM (inactive) | 58.1 µM (inactive) | 31.2 µM (inactive) | > 100 µM (inactive) | 48.4 µM (inactive) | > 100 µM (inactive) | > 100 µM (inactive) |
| CCCCOC(=O)C(NC(C(=O)OCCCC)c1cc(C(C)(C)C)c(O)c(C(C)(C)C)c1)c1cc(C(C)(C)C)c(O)c(C(C)(C)C)c1 (stereo not given) | > 100 µM (inactive) | > 100 µM (inactive) | 73.8 µM (inactive) | > 100 µM (inactive) | > 100 µM (inactive) | 75 µM (inactive) | > 100 µM (inactive) | > 100 µM (inactive) | > 100 µM (inactive) | > 100 µM (inactive) | 75 µM (inactive) | > 100 µM (inactive) | > 100 µM (inactive) | > 100 µM (inactive) | > 100 µM (inactive) | > 100 µM (inactive) | 8.63 µM (inactive) | 74.6 µM (inactive) | – |
| COc1cc(OC)cc(-n2c(N)c(-c3nc4ccccc4s3)c3ccc([N+](=O)[O-])cc3c2=O)c1 | 13.1 µM (inactive) | 28.4 µM (inactive) | 69.7 µM (inactive) | 30.4 µM (inactive) | 43.8 µM (inactive) | 3.27 µM (inactive) | – | > 100 µM (inactive) | – | > 100 µM (inactive) | – | 25.7 µM (inactive) | 77.4 µM (inactive) | 24.9 µM (inactive) | 13.4 µM (inactive) | > 100 µM (inactive) | 27.8 µM (inactive) | 40.4 µM (inactive) | 84.5 µM (inactive) |
| C(=C\c1cc(-c2ccc3ccccc3n2)nc2ccc3ccccc3c12)/c1ccc2ccccc2n1 | > 100 µM (inactive) | > 100 µM (inactive) | > 100 µM (inactive) | > 100 µM (inactive) | > 100 µM (inactive) | – | > 100 µM (inactive) | > 100 µM (inactive) | > 100 µM (inactive) | > 100 µM (inactive) | > 100 µM (inactive) | > 100 µM (inactive) | > 10 µM (inactive) | > 100 µM (inactive) | 62.2 µM (inactive) | > 100 µM (inactive) | 24 µM (inactive) | > 100 µM (inactive) | > 100 µM (inactive) |
| CC(=O)NC1C(OC(C)C(=O)NC(C(=O)NC(CCC(=O)NCCCNC2c3ccccc3Nc3cccc([N+](=O)[O-])c32)C(N)=O)C(C)C)C(O)C(CO)OC1(C)OCc1ccccc1 (stereo not given) | 0.536 µM (active) | 1.93 µM (inactive) | 1.02 µM (active) | 0.556 µM (active) | 0.264 µM (active) | – | 1.6 µM (inactive) | 1.47 µM (inactive) | 1.18 µM (inactive) | 0.343 µM (active) | 0.355 µM (active) | 1.13 µM (inactive) | 1.61 µM (inactive) | 2.02 µM (inactive) | – | – | 1.91 µM (inactive) | 1.25 µM (inactive) | 0.671 µM (active) |
| Cc1cc(C)c2c(-c3ccccc3)cc(=O)[nH]c2c1 | > 100 µM (inactive) | > 100 µM (inactive) | > 100 µM (inactive) | > 100 µM (inactive) | > 100 µM (inactive) | – | > 100 µM (inactive) | > 100 µM (inactive) | > 100 µM (inactive) | > 100 µM (inactive) | > 100 µM (inactive) | > 100 µM (inactive) | > 100 µM (inactive) | > 100 µM (inactive) | – | > 100 µM (inactive) | > 100 µM (inactive) | – | > 100 µM (inactive) |
| c1ccc(COc2ncccc2C2SCCCS2)cc1 | > 100 µM (inactive) | > 100 µM (inactive) | > 100 µM (inactive) | > 100 µM (inactive) | > 100 µM (inactive) | > 100 µM (inactive) | > 100 µM (inactive) | 82.4 µM (inactive) | > 100 µM (inactive) | 84.3 µM (inactive) | – | > 100 µM (inactive) | > 100 µM (inactive) | > 100 µM (inactive) | 67.3 µM (inactive) | > 100 µM (inactive) | – | > 100 µM (inactive) | > 100 µM (inactive) |
| CCCCCCCc1ccc(-c2nnc(/N=N/c3ccc(OCCCCC)cc3)s2)s1 | > 100 µM (inactive) | > 100 µM (inactive) | > 100 µM (inactive) | > 100 µM (inactive) | > 100 µM (inactive) | – | 79.1 µM (inactive) | – | > 100 µM (inactive) | > 100 µM (inactive) | > 100 µM (inactive) | > 100 µM (inactive) | > 100 µM (inactive) | > 100 µM (inactive) | > 100 µM (inactive) | > 100 µM (inactive) | > 100 µM (inactive) | > 100 µM (inactive) | > 100 µM (inactive) |
| C[As+](C)(c1ccc(Br)c([N+](=O)[O-])c1)c1ccc(Br)c([N+](=O)[O-])c1 | > 100 µM (inactive) | > 100 µM (inactive) | – | > 100 µM (inactive) | > 100 µM (inactive) | > 100 µM (inactive) | > 100 µM (inactive) | > 100 µM (inactive) | > 100 µM (inactive) | > 100 µM (inactive) | > 100 µM (inactive) | > 100 µM (inactive) | > 100 µM (inactive) | > 100 µM (inactive) | > 100 µM (inactive) | 27.9 µM (inactive) | > 100 µM (inactive) | > 100 µM (inactive) | > 100 µM (inactive) |
| O=C1OC(c2ccccc2)=N/C1=C\c1ccc(Cl)cc1 | > 100 µM (inactive) | > 100 µM (inactive) | 61.5 µM (inactive) | > 100 µM (inactive) | > 100 µM (inactive) | > 100 µM (inactive) | > 100 µM (inactive) | > 100 µM (inactive) | > 100 µM (inactive) | > 100 µM (inactive) | > 100 µM (inactive) | > 100 µM (inactive) | > 100 µM (inactive) | 66.2 µM (inactive) | – | > 100 µM (inactive) | > 100 µM (inactive) | > 100 µM (inactive) | > 100 µM (inactive) |
| CCOP(=O)(Nc1ccccc1P(=O)(OCC)OCC)OCC | > 100 µM (inactive) | > 100 µM (inactive) | – | > 100 µM (inactive) | > 100 µM (inactive) | > 100 µM (inactive) | > 100 µM (inactive) | – | > 100 µM (inactive) | > 100 µM (inactive) | > 100 µM (inactive) | – | > 100 µM (inactive) | > 100 µM (inactive) | – | > 100 µM (inactive) | > 100 µM (inactive) | > 100 µM (inactive) | > 100 µM (inactive) |
| COC(=O)/C=C(/C=C1/C(C#N)=C(N)N(c2ccc(Cl)cc2)C1(C)/C(=C/C(=O)OC)C(=O)OC)C(=O)OC (stereo not given) | 40.3 µM (inactive) | 49.5 µM (inactive) | 27 µM (inactive) | 25.1 µM (inactive) | 60.3 µM (inactive) | 42.3 µM (inactive) | 27.6 µM (inactive) | 23.9 µM (inactive) | 76.9 µM (inactive) | 78.3 µM (inactive) | 23 µM (inactive) | – | 42.3 µM (inactive) | 53 µM (inactive) | > 100 µM (inactive) | > 100 µM (inactive) | 20.5 µM (inactive) | 64.1 µM (inactive) | 82.6 µM (inactive) |
| c1cnn(C23C4C5C6C4C2C6C53)c1 (stereo not given) | > 100 µM (inactive) | > 100 µM (inactive) | > 100 µM (inactive) | > 100 µM (inactive) | > 100 µM (inactive) | – | > 100 µM (inactive) | > 100 µM (inactive) | – | > 100 µM (inactive) | > 100 µM (inactive) | 60.4 µM (inactive) | > 100 µM (inactive) | > 100 µM (inactive) | > 100 µM (inactive) | > 100 µM (inactive) | > 100 µM (inactive) | – | > 100 µM (inactive) |
| O=C1C(c2c(O)[nH]c3ccc(S(=O)(=O)O)cc23)=Nc2ccccc21 | > 100 µM (inactive) | > 100 µM (inactive) | > 100 µM (inactive) | > 100 µM (inactive) | > 100 µM (inactive) | > 100 µM (inactive) | > 100 µM (inactive) | > 100 µM (inactive) | > 100 µM (inactive) | 53.5 µM (inactive) | > 100 µM (inactive) | > 100 µM (inactive) | > 100 µM (inactive) | > 100 µM (inactive) | – | > 100 µM (inactive) | > 100 µM (inactive) | > 100 µM (inactive) | > 100 µM (inactive) |
